According to patent publication US8722910B2, “Diyne compositions” (Evolva AG, priority 2009, dated 2014):
≈ marks a conversion by molar mass, not a printed value. Where two headings read alike, the source gives them in different places. Numbered stars: 1 amine (or outer) side, 2 acyl side, 3 side chain; on linkers, the order of the positions; unused ones are H or OH. Bridge positions count the residues as written; N and C are the ends. Square brackets hold non-standard residues; d marks the D form. Peptide text beside a SMILES is read from it. * marks the point of attachment. Orn(4R-OH,5R-OH) = O=C([C@H](C[C@@H](O)[C@@H](O)N[*:3])N[*:1])[*:2]; hTyr(3S-OH,4S-OH) = N[C@H](C(=O)O)[C@H](O)[C@@H](O)c1ccc(O)cc1; Pro(3S-OH,4S-Me) = C[C@H]1CN[C@H](C(=O)O)[C@H]1O; Benzoyl(4-octyloxy) = CCCCCCCCOc1ccc(C(=O)*)cc1; Hyp = O=C(O)[C@@H]1C[C@@H](O)CN1

Columns and labels:
[1] = test system: C. albicans SC5314; assay: MIC versus reference Candida strains (broth micro dilution); format: cell-based
[2] = test system: S. cerevisiae AD1-9; assay: IC50 (50% growth inhibition) of diyne compounds; format: cell-based; conditions: strain AD1-9; for IC50: Saccharomyces cerevisiae, AD19
Method: (§1) The inhibition is partly measured by minimum inhibitory and minimum fungicidal concentration (MIC and MFC, respectively) and partly as IC50 (i.e. concentration required for 50% inhibition).
(§2) IC50 against two different S. cerevisiae strains and two different C. albicans strains by a number of diyne compounds was determined and the results are shown in Table 17.

[3] = test system: S. cerevisiae 2229-5C; assay: IC50 (50% growth inhibition) of diyne compounds; format: cell-based; conditions: strain 2229-5C; for IC50: Saccharomyces cerevisiae, 22295C; for value in brackets after the IC50 bound (not explained): at the bound concentration
Method: as §1, §2

[4] = test system: C. albicans DSY1024; assay: IC50 (50% growth inhibition) of diyne compounds; format: cell-based; conditions: Candida albicans, DSY1024, read-out: C. albicans IC50
Method: as §1, §2

[5] = test system: C. albicans SC5314; assay: IC50 (50% growth inhibition) of diyne compounds; format: cell-based; conditions: Candida albicans; strain SC5314
Method: as §1, §2

[6] = test system: C. tropicalis ATCC-750; assay: MIC versus reference Candida strains (broth micro dilution); conditions: Candida tropicalis, ATCC750
[7] = test system: C. krusei ATCC-6258; assay: as above; conditions: Pichia kudriavzevii, ATCC6258
[8] = test system: C. albicans ATCC-90028; assay: as above; conditions: Candida albicans, ATCC90028
[9] = test system: C. parapsilosis ATCC-22019; assay: as above; conditions: Lodderomyces parapsilosis, ATCC22019
[10] = test system: C. albicans ATCC-24433; assay: as above; conditions: Candida albicans, ATCC24433
[11] = test system: C. glabrata ATCC-90030; assay: as above; conditions: Nakaseomyces glabratus, ATCC90030
[12] = test system: C. parapsilosis ATCC-90018; assay: as above; conditions: Lodderomyces parapsilosis, ATCC90018
[13] = test system: (1,3)β-Glucan Synthase; assay: Inhibition of fungal cell wall synthesis enzymes; format: biochemical; conditions: 20.6 μg/ml
Source text: (§3) Specific inhibitors of each enzyme served as positive controls (Cilofungin, a β-glucan synthase inhibitor and nikkomycin Z, a chitin synthase inhibitor).

[14] = test system: Chitin Synthase; assay: Inhibition of fungal cell wall synthesis enzymes; format: biochemical; conditions: 9.9 μg/ml
Source text: as §3

[15] = test system: Candida albicans; assay: In vitro fungicidal activity vs. Candida albicans; conditions: Candida albicans
[16] = test system: OLE1; assay: OLE1 expression by real time PCR; format: cell-based, S. cerevisiae; conditions: 10 μg/ml oleic acid alone
Method: The expression of OLE1 was determined by real time PCR 10, 60, 120 and 240 min after compound addition (Knechtle, P. and Greve, K., 2009). OLE1 transcript levels were calibrated to the expression of the tubulin gene (TUB1) and normalized to the OLE1 expression at 10 min without compound addition (FIG. 17(a)).
The expression of the OLE1 gene was determined by real time PCR 10, 60, 120 and 240 min for the conditions a.-e., as indicated in Table 3 above. OLE1 transcript levels were calibrated to the expression of the tubulin gene (TUB1) and normalized to the OLE1 expression at 10 min without compound addition. See FIG. 17a showing time dependent expressions of OLE1 in response to compound IV″. Conditions a.-e. are listed in Table 3 above, numbers indicate time intervals in minutes. Expressions of OLE1 are given as multiples of the expression at 10 min, condition a. […] 10 μg/ml oleic acid compensated for the OLE1 expression increase caused by 1 μg/ml compound IV alone. Compound IV″ dependent up-regulation of OLE1 expression thus confirms that compound IV″ is acting as an inhibitor of the Ole1 protein. The antagonistic effect of oleic acid found in the susceptibility assays, is reflected mechanistically in this experiment by a down-regulation of the target Ole1 protein through oleic acid.

[17] = test system: S. cerevisiae; assay: Doubling times of S. cerevisiae; format: cell-based; conditions: 10 μg/ml oleic acid alone
Method: S. cerevisiae was cultured in the presence of 1 and 10 μg/ml of the potassium salt, 10 μg/ml oleic acid and 1 μg/ml of the potassium salt combined with 10 μg/ml oleic acid.
When S. cerevisiae was cultured in the presence of 1 and 10 μg/ml compound IV″, the doubling times increased to 2.4 h and 4.2 h, respectively, compared to 2 h for the untreated control. The addition of 10 μg/ml oleic acid, sodium salt, to 1 μg/ml compound IV″ reversed the doubling time to 2 h as observed for the untreated control or 10 μg/ml oleic acid, sodium salt alone.

[18] = test system: all dermatophyte strains; assay: MIC and MFC range over all dermatophyte strains tested; format: cell-based, dermatophytes; conditions: Table 14 strains
[19] = test system: T. terrestre; assay: In vitro antifungal activity vs. dermatophytes (MIC/MFC); format: cell-based; conditions: 96 h; T. terrestre (n = 1); 35° C., 4 days
[20] = test system: M. gallinae; assay: as above; format: cell-based; conditions: 96 h; M. gallinae (n = 1); 35° C., 4 days
[21] = test system: M. cookie; assay: as above; format: cell-based; conditions: 96 h; M. cookie (n = 1); 35° C., 4 days
[22] = test system: T. rubrum, Terbinafine resistant isolates; assay: as above; format: cell-based; conditions: Trichophyton rubrum, 96 h; T. rubrum (TERB-resistant) (n = 9); 35° C., 4 days
[23] = test system: ergosterol biosynthesis; assay: 13C-acetate incorporation into ergosterol; format: cell-based, Candida albicans; conditions: drug at about its MIC, added after the first 15 minutes
[24] = test system: M. vanbreuseghemii; assay: In vitro antifungal activity vs. dermatophytes (MIC/MFC); format: cell-based; conditions: 96 h; M. vanbreuseghemii (n = 1); 35° C., 4 days
[25] = test system: M. gypseum; assay: as above; format: cell-based; conditions: Nannizzia gypsea, 96 h; M. gypseum (n = 1); 35° C., 4 days
[26] = test system: Trichophyton tonsurans; assay: as above; format: cell-based; conditions: 96 h; Trichophyton tonsurans (n = 15); 35° C., 4 days
[27] = test system: Microsporum canis; assay: as above; format: cell-based; conditions: 96 h; Microsporum canis (n = 15); 35° C., 4 days
[28] = test system: T. mentagrophytes; assay: as above; format: cell-based; conditions: Trichophyton mentagrophytes, 96 h; T. mentagrophytes (n = 15); 35° C., 4 days
[29] = test system: T. rubrum; assay: as above; format: cell-based; conditions: Trichophyton rubrum, 96 h; T. rubrum (n = 15); 35° C., 4 days
[30] = test system: Epidermophyton floccosum; assay: as above; format: cell-based; conditions: 96 h; Epidermophyton floccosum (n = 15); 35° C., 4 days

Structure (SMILES): O=C(O)CCCCCCC/C=C/C#CC#Cc1ccco1 [VIII″, (E)-14-(furan-2-yl)tetradeca-9-en-11,13-diynoic acid]
- MIC [1]: 0.15 µg/mL (≈ 0.528 µM)
- IC50 [2]: 0.4 µg/mL (≈ 1.41 µM)
- IC50 [3]: 2.7 µg/mL (≈ 9.5 µM)
- IC50 [4]: 0.004 µg/mL (≈ 0.0141 µM)
- IC50 [5]: 3 µg/mL (≈ 10.6 µM)

Structure (SMILES): O=C(O)CCCCCCCc1ccccc1C#CC#Cc1ccco1 [VII″, 8-(2-(4-(furan-2-yl)buta-1,3-diynyl)phenyl)octanoic acid]
- MIC [6]: > 10.2 µg/mL
- MIC [7]: > 10.2 µg/mL
- MIC [8]: > 10.2 µg/mL
- MIC [9]: > 10.2 µg/mL
- MIC [10]: > 10.2 µg/mL
- MIC [11]: > 10.2 µg/mL
- MIC [1]: > 10.2 µg/mL
- MIC [12]: > 10.2 µg/mL

Structure (SMILES): CCCCCCCCOc1ccc(C(=O)N[C@H]2C[C@@H](O)[C@@H](O)NC(=O)[C@@H]3[C@@H](O)[C@@H](C)CN3C(=O)[C@H]([C@@H](C)O)NC(=O)[C@H]([C@H](O)[C@@H](O)c3ccc(O)cc3)NC(=O)[C@@H]3C[C@@H](O)CN3C(=O)[C@H]([C@@H](C)O)NC2=O)cc1 [Cilofungin, reference compound] ({Benzoyl(4-octyloxy)}-[Orn(4R-OH,5R-OH)]T[Hyp][hTyr(3S-OH,4S-OH)]T[Pro(3S-OH,4S-Me)]; lactam 1-C)
- % Inhibition, (1,3)β-Glucan Synthase [13]: 51%

Structure (SMILES): CCOC(=O)CCCCCCC/C=C\C#CC#Cc1ccco1 [(Z)-ethyl 14-(furan-2-yl)tetradeca-9-en-11,13-diynoate]
- IC50 [2]: 0.7 µg/mL (≈ 2.24 µM)
- IC50 [3]: 8.9 µg/mL (≈ 28.5 µM)
- IC50 [5]: 9 µg/mL (≈ 28.8 µM)

Structure (SMILES): C[C@@H]([C@H](N)C(=O)N[C@H](C(=O)O)[C@H]1O[C@@H](n2ccc(=O)[nH]c2=O)[C@H](O)[C@@H]1O)[C@H](O)c1ccc(O)cn1 [Nikkomycin Z, reference compound]
- % Inhibition, Chitin Synthase [14]: 61%

Structure (SMILES): Cc1cc(C#CC#C/C=C\CCCCCCCC(=O)O)oc1C [VI″, (Z)-14-(4,5-dimethylfuran-2-yl)tetradeca-9-en-11,13-diynoic acid]
- MIC [6]: > 10.2 µg/mL
- MIC [7]: > 10.2 µg/mL
- MIC [8]: > 10.2 µg/mL
- MIC [9]: > 10.2 µg/mL
- MIC [10]: > 10.2 µg/mL
- MIC [11]: > 10.2 µg/mL
- MIC [1]: > 10.2 µg/mL
- MIC [12]: > 10.2 µg/mL

Structure (SMILES): O=C(O)CCCCCC/C=C\C#CC#Cc1ccco1 [(Z)-13-(furan-2-yl)trideca-8-en-10,12-diynoic acid]
- IC50 [2]: ~50 µg/mL (≈ 185 µM)
- IC50 [3]: > 200 µg/mL
- value in brackets after the IC50 bound (not explained) [3]: 25%
- IC50 [4]: 0.5 µg/mL (≈ 1.85 µM)
- IC50 [5]: > 200 µg/mL

Structure (SMILES): COC(=O)CCCCCCC/C=C\C#CC#Cc1ccco1 [(Z)-methyl 14-(furan-2-yl)tetradeca-9-en-11,13-diynoate]
- IC50 [2]: > 0.4 µg/mL
- value in brackets after the IC50 bound (not explained) ([2]; at the bound concentration): 6%
- IC50 [3]: > 0.4 µg/mL
- value in brackets after the IC50 bound (not explained) [3]: 4%
- IC50 [4]: 0.19 µg/mL (≈ 0.637 µM)
- IC50 [5]: 0.4 µg/mL (≈ 1.34 µM)

Structure (SMILES): CC(=O)N1CCN(c2ccc(OCC3COC(Cn4ccnc4)(c4ccc(Cl)cc4Cl)O3)cc2)CC1 (stereo not drawn) [Ketoconazole]
- Fungicidal Concentration [15]: >800,000 ng/ml
- MIC90 ([15]; 24 h, read-out: MIC90 24 h): 50 µg/mL (≈ 94.1 µM)
- MIC90 ([15]; 48 h, read-out: MIC90 48 h): > 800 µg/mL

Structure (SMILES): Nc1nc(=O)[nH]cc1F [5-fluorocytosine]
- Fungicidal Concentration [15]: 1563 ng/mL
- MIC90 ([15]; 24 h, read-out: MIC90 24 h): 0.098 µg/mL (≈ 0.759 µM)
- MIC90 ([15]; 48 h, read-out: MIC90 48 h): 0.195 µg/mL (≈ 1.51 µM)

Structure (SMILES): CCCCCCCC/C=C\CCCCCCCC(=O)O [oleic acid, reference compound]
- decrease of the expression level of OLE1 [16]: about 6 fold
- Doubling time [17]: 2.0 h
- Doubling time ([17]; sodium salt): 2 h

Structure (SMILES): C[C@@H]1C[C@@H]([C@H](O)CC2CC(=O)NC(=O)C2)C(=O)[C@@H](C)C1 [Cycloheximide]
- Fungicidal Concentration [15]: 12,800,000 ng/ml
- MIC90 ([15]; 24 h, read-out: MIC90 24 h): 1600 µg/mL (≈ 5690 µM)
- MIC90 ([15]; 48 h, read-out: MIC90 48 h): 12800 µg/mL (≈ 45500 µM)

Structure (SMILES): CN(C/C=C/C#CC(C)(C)C)Cc1cccc2ccccc12 [Terbinafine, reference compound]
- MIC range against all dermatophyte strains [18]: 0.002 to 4 µg/mL
- MIC [19]: 0.008 µg/mL (≈ 0.0275 µM)
- MIC [20]: 0.008 µg/mL (≈ 0.0275 µM)
- MIC [21]: 0.008 µg/mL (≈ 0.0275 µM)
- MIC [22]: 4 µg/mL (≈ 13.7 µM)
- net biosynthesis of ergosterol (13C-acetate incorporation) [23]: inhibited the incorporation of acetate into ergosterol
- MIC [24]: 0.015 µg/mL (≈ 0.0515 µM)
- MIC [25]: 0.004 µg/mL (≈ 0.0137 µM)
- MIC [26]: 0.008 µg/mL (≈ 0.0275 µM)
- MIC [27]: 0.015 µg/mL (≈ 0.0515 µM)
- MIC [28]: 0.008 µg/mL (≈ 0.0275 µM)
- MIC [29]: 0.002 µg/mL (≈ 0.00686 µM)
- MIC [30]: 0.015 µg/mL (≈ 0.0515 µM)

Structure (SMILES): O=C(O)CCCCC/C=C\C#CC#Cc1ccco1 [(Z)-12-(furan-2-yl)dodeca-7-en-9,11-diynoic acid]
- IC50 [2]: ~6.25 µg/mL (≈ 24.4 µM)
- IC50 [3]: ~50 µg/mL (≈ 195 µM)
- IC50 [4]: 1.8 µg/mL (≈ 7.02 µM)
- IC50 [5]: 50 µg/mL (≈ 195 µM)
